The test system of test [1] is Aβ40 in conditioned medium of cells stably expressing Amyloid Precursor Protein (APP). The test can be described thus: In vitro BACE cell-based assay (Aβ40 in conditioned medium, sandwich ELISA). As to conditions: Homo sapiens, read-out: HEK cell assay. In outline: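 The sandwich ELISA pairs pAb40 capture (3 h, 4 °C) with 6E10 detection (2 h, 4 °C) and a streptavidin-europium TRF read-out. Supernatants come from APP-expressing cells grown in 10% FBS DMEM.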

In test [2] the target is Beta Secretase enzyme (BACE) (Homo sapiens, UniProt P56817). Put plainly: In vitro enzymatic BACE FRET (fluorescence resonance energy transfer) assay. In kind it is biochemical. As to conditions: average IC50, enzyme assay; read-out: BACE 1 FRET assay. In outline: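 Fluorescence read after Tris quench (pH raised to neutrality) of a one-hour BACE reaction. Buffer: acetate 0.05 M, pH 4.2, with 100 uM genapol and 10% DMSO final; started by adding 50 nM FRET peptide substrate spanning the cleavage site.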

Where [3] appears, read: HEK293, average IC50, HEK cells.

Where two headings read alike, the source gives them in different places.

Sequence of Beta Secretase enzyme (BACE) (P56817 46-501, species assumed): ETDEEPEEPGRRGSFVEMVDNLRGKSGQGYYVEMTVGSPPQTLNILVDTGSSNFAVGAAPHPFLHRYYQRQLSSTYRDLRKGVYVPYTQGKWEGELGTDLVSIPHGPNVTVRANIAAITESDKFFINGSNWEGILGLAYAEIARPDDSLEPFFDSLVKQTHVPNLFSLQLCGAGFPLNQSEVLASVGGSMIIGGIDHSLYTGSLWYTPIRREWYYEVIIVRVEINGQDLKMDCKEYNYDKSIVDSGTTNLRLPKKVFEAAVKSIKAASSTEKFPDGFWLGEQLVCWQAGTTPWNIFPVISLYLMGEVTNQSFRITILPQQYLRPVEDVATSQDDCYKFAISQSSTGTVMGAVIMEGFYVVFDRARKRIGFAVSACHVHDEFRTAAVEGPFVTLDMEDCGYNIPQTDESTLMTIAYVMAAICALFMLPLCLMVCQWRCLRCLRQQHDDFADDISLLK

For the molecule `Cc1nc(F)ccc1-c1ccc2c(c1)[C@@]1(COC(N)=N1)c1cc(C3=CCOCC3)ncc1O2` [Example 251, (5S)-3-(3,6-dihydro-2H-pyran-4-yl)-7-(6-fluoro-2-methyl-3-pyridinyl)spiro[chromeno[2,3-c]pyridine-5,4′-[1,3]oxazol]-2′-amine], the IC50 in test [1] (HEK293, average IC50) came to 271 nM; in test [2] it was 26.8 nM.
As for `NC1=N[C@@]2(CO1)c1cc(-c3ccc(F)cc3)ccc1Oc1cnc(-c3cncnc3)cc12` [Example 396, (5S)-7-(4-fluorophenyl)-3-(5-pyrimidinyl)spiro[chromeno[2,3-c]pyridine-5,4′-[1,3]oxazol]-2′-amine], the IC50 was 1080 nM in test [1] (setting [3]) and 136 nM in test [2].
As for `CC1(C#Cc2cc3c(nc2F)Oc2ccc(-c4cncc(F)c4)cc2[C@@]32COC(N)=N2)COC1` [Example 907, (5S)-2-fluoro-7-(5-fluoro-3-pyridinyl)-3-((3-methyl-3-oxetanyl)ethynyl)spiro[chromeno[2,3-b]pyridine-5,4′-[1,3]oxazol]-2′-amine], the values for the IC50 in test [1] (setting [3]) and in test [2] were 23 nM and 1.1 nM, respectively.
Turning to `CC(C)(C)C#Cc1cnc2c(c1)[C@@]1(COC(N)=N1)c1cc(-c3cncnc3)c(F)cc1O2` [Example 338, (5R)-3-(3,3-dimethyl-1-butyn-1-yl)-8-fluoro-7-(5-pyrimidinyl)spiro[chromeno[2,3-b]pyridine-5,4′-[1,3]oxazol]-2′-amine], the IC50 in test [1] (HEK293, average IC50) was determined as 1240 nM; in test [2] it was 213 nM.
On to `NC1=N[C@@]2(CO1)c1cc(-c3cccc(Cl)c3)ccc1Oc1cnc(-c3cccc(Cl)c3)cc12` [Example 527, (5S)-3,7-bis(3-chlorophenyl)spiro[chromeno[2,3-c]pyridine-5,4′-[1,3]oxazol]-2′-amine], for which the values for the IC50 in test [1] (setting [3]) and in test [2] were 612 nM and 1.5 nM, respectively.
For the molecule `NC1=NC2(CO1)c1cc(-c3cccnc3F)ccc1Oc1nc(F)c(-c3ccnc(F)c3)cc12` (stereo not shown) [Example 151, 2-fluoro-7-(2-fluoro-3-pyridinyl)-3-(2-fluoro-4-pyridinyl)spiro[chromeno[2,3-b]pyridine-5,4′-[1,3]oxazol]-2′-amine], the IC50 in test [1] (HEK293, average IC50) was found to be 50.8 nM; in test [2], 1.3 nM.
On the same counts, the results for `CC1(COc2cc3c(cc2F)Oc2ccc(-c4cccnc4F)cc2[C@@]32COC(N)=N2)COC1` [Example 360, (4S)-3′-fluoro-7′-(2-fluoro-3-pyridinyl)-2′-((3-methyl-3-oxetanyl)methoxy)spiro[1,3-oxazole-4,9′-xanthen]-2-amine] are 22.4 nM and 2.9 nM.
As for `CC(C)(F)C#Cc1cnc2c(c1)[C@]1(COC(N)=N1)c1cc(-c3cncnc3)c(F)cc1O2` [Example 717, (S)-8-fluoro-3-(3-fluoro-3-methylbut-1-ynyl)-7-(pyrimidin-5-yl)-5′H-spiro[chromeno[2,3-b]pyridine-5,4′-oxazol]-2′-amine], the IC50 was found to be 212 nM in test [1] (setting [3]) and 3.8 nM in test [2].
Take `CC1(/C=C/c2cnc3c(c2)[C@]2(COC(N)=N2)c2cc(-c4ccc(F)nc4)ccc2O3)COC1` [Example 176, (5S)-7-(6-fluoro-3-pyridinyl)-3-((E)-2-(3-methyl-3-oxetanyl)ethenyl)spiro[chromeno[2,3-b]pyridine-5,4′-[1,3]oxazol]-2′-amine]: the IC50 in test [1] (HEK293, average IC50) worked out at 3.2 nM; in test [2] it was 1.2 nM.
For `CC(C)(C#N)COc1cc2c(c(F)c1F)Oc1ccc(-c3cccnc3)cc1[C@]21COC(N)=N1` [Example 1008, 3-(((4R)-2-amino-3′,4′-difluoro-7′-(3-pyridinyl)spiro[1,3-oxazole-4,9′-xanthen]-2′-yl)oxy)-2,2-dimethylpropanenitrile] the same measures were 775 nM and 17.9 nM.
In the case of `NC1=N[C@@]2(CO1)c1cc(-c3cncc(N4CCC(F)(F)C4)c3)ccc1Oc1cnc(Cl)cc12` [Example 427, (5S)-3-chloro-7-(5-(3,3-difluoro-1-pyrrolidinyl)-3-pyridinyl)spiro[chromeno[2,3-c]pyridine-5,4′-[1,3]oxazol]-2′-amine], the values for the IC50 in test [1] (setting [3]) and in test [2] were 610 nM and 640 nM, respectively.
On to `NC1=N[C@@]2(CO1)c1cc(-c3cc(Cl)cnc3F)ccc1Oc1cnc(C3=CCOCC3)cc12` [Example 361, (5S)-7-(5-chloro-2-fluoro-3-pyridinyl)-3-(3,6-dihydro-2H-pyran-4-yl)spiro[chromeno[2,3-c]pyridine-5,4′-[1,3]oxazol]-2′-amine], for which the IC50 was 6.1 nM in test [1] (HEK293, average IC50) and 0.5 nM in test [2].
Take `CC1(C)C[C@@H](c2cc3c(cn2)Oc2ccc(-c4cncc(F)c4)cc2[C@@]32COC(N)=N2)CCO1` [Example 380, (5S)-3-((4S)-2,2-dimethyltetrahydro-2H-pyran-4-yl)-7-(5-fluoro-3-pyridinyl)spiro[chromeno[2,3-c]pyridine-5,4′-[1,3]oxazol]-2′-amine]: the IC50 in test [1] (HEK293, average IC50) came to 100 nM; in test [2], 30.2 nM.
Turning to `Cc1ccc(-c2cc(F)c3c(c2)[C@]2(COC(N)=N2)c2cc(OCC4(C)COC4)ccc2O3)cn1` [Example 440, (4S)-4′-fluoro-7′-((3-methyl-3-oxetanyl)methoxy)-2′-(6-methyl-3-pyridinyl)spiro[1,3-oxazole-4,9′-xanthen]-2-amine], the IC50 in test [1] (setting [3]) was determined as 16.9 nM; in test [2] it was 11.7 nM.
`Cn1cc(-c2cnc3c(c2)[C@@]2(COC(N)=N2)c2c(ccc(-c4cccnc4F)c2F)O3)cn1` [Example 357, (5S)-6-fluoro-7-(2-fluoro-3-pyridinyl)-3-(1-methyl-1H-pyrazol-4-yl)spiro[chromeno[2,3-b]pyridine-5,4′-[1,3]oxazol]-2′-amine]: the IC50 in test [1] (HEK293, average IC50) was determined as 2130 nM; in test [2] it was 1050 nM.
On the same counts, the results for `COc1nc(C2CCCOC2)cc2c1Oc1ccc(-c3cccnc3)cc1[C@@]21COC(N)=N1` (stereo partly drawn) [Example 845, (5S)-1-methoxy-7-(3-pyridinyl)-3-(tetrahydro-2H-pyran-3-yl)spiro[chromeno[2,3-c]pyridine-5,4′-[1,3]oxazol]-2′-amine] are 70 nM and 15.5 nM.
Take `CC1(C)C[C@H](c2cc3c(cn2)Oc2ccc(-c4cccnc4F)cc2[C@@]32COC(N)=N2)CCO1` [Example 377, (5S)-3-((4R)-2,2-dimethyltetrahydro-2H-pyran-4-yl)-7-(2-fluoro-3-pyridinyl)spiro[chromeno[2,3-c]pyridine-5,4′-[1,3]oxazol]-2′-amine]: the IC50 in test [1] (HEK293, average IC50) came out at 29.4 nM; in test [2], 5.9 nM.
For `Cc1cnc(F)c(-c2ccc3c(c2)[C@@]2(COC(N)=N2)c2cc(C4=CCOCC4)ccc2O3)c1` [Example 191, (4R)-2′-(3,6-dihydro-2H-pyran-4-yl)-7′-(2-fluoro-5-methyl-3-pyridinyl)spiro[1,3-oxazole-4,9′-xanthen]-2-amine] the same measures were 35.6 nM and 5.6 nM.
On the same counts, the results for `COCCN(C)c1cc(F)c2c(c1)[C@]1(COC(N)=N1)c1cc(-c3cccnc3F)ccc1O2` [Example 207, (4S)-4′-fluoro-7′-(2-fluoro-3-pyridinyl)-N~2~′-(2-methoxyethyl)-N~2~′-methylspiro[1,3-oxazole-4,9′-xanthene]-2,2′-diamine] are 31.4 nM and 7.5 nM.
As to `COc1ncccc1-c1ccc2c(c1)[C@@]1(COC(N)=N1)c1cc(N3CCC(F)(F)CC3)nc(OC)c1O2` [Example 852, (5S)-3-(4,4-difluoro-1-piperidinyl)-1-methoxy-7-(2-methoxy-3-pyridinyl)spiro[chromeno[2,3-c]pyridine-5,4′-[1,3]oxazol]-2′-amine], the IC50 in test [1] (setting [3]) came to 609 nM; in test [2] it was 92.6 nM.
Regarding `CC#Cc1cncc(-c2ccc3c(c2)[C@@]2(COC(N)=N2)c2cc(C4=CCOCC4)nc(OC)c2O3)c1` [Example 835, (5S)-3-(3,6-dihydro-2H-pyran-4-yl)-1-methoxy-7-(5-(1-propyn-1-yl)-3-pyridinyl)spiro[chromeno[2,3-c]pyridine-5,4′-[1,3]oxazol]-2′-amine], the IC50 amounted to 7 nM in test [1] (HEK293, average IC50) and 0.6 nM in test [2].
For `N#Cc1cncc(-c2ccc3c(c2)[C@@]2(COC(N)=N2)c2cc(C4=CCOCC4)ccc2O3)c1` [Example 190, 5-((4R)-2-amino-7′-(3,6-dihydro-2H-pyran-4-yl)spiro[1,3-oxazole-4,9′-xanthen]-2′-yl)-3-pyridinecarbonitrile], the IC50 in test [1] (HEK293, average IC50) came out at 23.1 nM; in test [2], 10.3 nM.
As to `CC#Cc1cncc(-c2ccc3c(c2)[C@]2(COC(N)=N2)c2cc(C4CCOCC4)nc(F)c2O3)c1` [Example 754, (5R)-1-fluoro-7-(5-(1-propyn-1-yl)-3-pyridinyl)-3-(tetrahydro-2H-pyran-4-yl)spiro[chromeno[2,3-c]pyridine-5,4′-[1,3]oxazol]-2′-amine], the IC50 came to 691 nM in test [1] (HEK293, average IC50) and 156 nM in test [2].
For `CC1(C#Cc2cnc3c(c2)[C@@]2(COC(N)=N2)c2c(ccc(-c4cccnc4F)c2F)O3)COC1` [Example 341, (5S)-6-fluoro-7-(2-fluoro-3-pyridinyl)-3-((3-methyl-3-oxetanyl)ethynyl)spiro[chromeno[2,3-b]pyridine-5,4′-[1,3]oxazol]-2′-amine] the same measures were 566 nM and 154 nM.
On the same counts, the results for `CC1(C)C[C@H](c2cc3c(cn2)Oc2ccc(-c4cccnc4)cc2[C@@]32COC(N)=N2)CCO1` [Example 368, (5S)-3-((4R)-2,2-dimethyltetrahydro-2H-pyran-4-yl)-7-(3-pyridinyl)spiro[chromeno[2,3-c]pyridine-5,4′-[1,3]oxazol]-2′-amine] are 37.9 nM and 10.4 nM.
On to `COC(C)(C)C#Cc1cnc2c(c1)[C@]1(COC(N)=N1)c1cc(-c3cncc(F)c3)c(F)cc1O2` [Example 641, (5S)-8-fluoro-7-(5-fluoro-3-pyridinyl)-3-(3-methoxy-3-methyl-1-butyn-1-yl)spiro[chromeno[2,3-b]pyridine-5,4′-[1,3]oxazol]-2′-amine], for which the figures for the IC50 in test [1] (setting [3]) and in test [2] were 13 nM and 0.9 nM, respectively.

Source of the values: patent publication US8883782B2, “Spiro-tetracyclic ring compounds as beta-secretase modulators and methods of use” (Amgen Inc., priority 2010, dated 2014).
